Structures are written as SMILES.

This note sets out measurements from US9586951B2 (FUJIFILM Corporation, priority 2013, dated 2017).

The target in one experiment is T1, ATM (Homo sapiens, UniProt Q13315).
T1 construct: detecting phosphorylation of Chk2 in a human non-small cell lung cancer cell line NCI-H460 (ATCC company); host or cells: NCI-H460 human non-small cell lung cancer cells
Put plainly: ATM inhibition test (phosphorylation of Chk2 generated by ionizing radiation, AlphaScreen SureFire). It counts as cell-based. The following applies: phosphorylated Chk2 in NCI-H460 cells, ionizing radiation 8Gy, 1 hour after test compound treatment; read-out: ATM inhibitory activity. The gist of the method: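 NCI-H460 cells treated with compound for 1 hour, then irradiated with 8Gy and incubated 1 hour at 37° C. Phospho-Chk2 measured by AlphaScreen SureFire. Inhibition ratio calculated relative to untreated irradiated and non-irradiated wells.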

The subject of experiment [1] is human non-small cell lung cancer cell line NCI-H460. Put plainly: Cell proliferation inhibition test by sensitivity-enhancing to ionizing radiation (Cell Titer Glo). The experiment is classed as cell-based. The following applies: Homo sapiens, concentration in which SER became 2, NCI-H460 cells, ionizing radiation 2 Gy, cultured 120 hour. The protocol: A human non-small cell lung cancer cell line NCI-H460 (ATCC company) was adjusted so as to be 2×10^3 cells/mL in a RPMI-1640 medium containing penicillin/streptomycin and FBS having a final concentration of 10%, and this was seeded by 100 μL per well in 96-well CellBIND® plates (Corning International Inc.). After 24 hours, the medium of cells was replaced with 100 μL of a medium including serially diluted liquid of the test compound or DMSO having a final concentration of 0.1%. 30 minutes after the medium was replaced, half of the plates were irradiated with ionizing radiation 2 Gy (Faxitron Bioptics, LLC, RX-650 type). The cells of the plates irradiated with ionizing radiation and the plates not being irradiated with ionizing radiation were cultured at 37° C. for 120 hour in 5% CO2. After a Cell Titer Glo reaction liquid of an equal volume was added to each well, the amount of luminescence was measured, according to the instruction book of Cell Titer Glo (Promega Corporation). Since the amount of luminescence is proportional to the ATP concentration in cells, the amount of luminescence was used as an indicator of the number of viable cells. Sensitivity-enhancing effects (SER) to ionizing radiation by the test compound was calculated by the following equation. SER=(amount of luminescence of wells including DMSO having a final concentration of 0.1% in the plates irradiated with ionizing radiation×amount of luminescence of wells including a compound in the plates not being irradiated with ionizing radiation)/(amount of luminescence of wells including the test compound in the plates irradiated with ionizing radiation×amount of luminescence of wells including DMSO having a final concentration of 0.1% in the plates not being irradiated with ionizing radiation)
SER at each compound concentration was plotted by nonlinear regression fit (FitModel (205)) by a sigmoidal dose-response equation using XLfit software (IDBS), and the concentration (SER2) in which SER became 2 was calculated.
A general note: Cellular ATP, detected with luciferase, serves as a proxy for viable cell number.

T1 sequence (Q13315 whole entry): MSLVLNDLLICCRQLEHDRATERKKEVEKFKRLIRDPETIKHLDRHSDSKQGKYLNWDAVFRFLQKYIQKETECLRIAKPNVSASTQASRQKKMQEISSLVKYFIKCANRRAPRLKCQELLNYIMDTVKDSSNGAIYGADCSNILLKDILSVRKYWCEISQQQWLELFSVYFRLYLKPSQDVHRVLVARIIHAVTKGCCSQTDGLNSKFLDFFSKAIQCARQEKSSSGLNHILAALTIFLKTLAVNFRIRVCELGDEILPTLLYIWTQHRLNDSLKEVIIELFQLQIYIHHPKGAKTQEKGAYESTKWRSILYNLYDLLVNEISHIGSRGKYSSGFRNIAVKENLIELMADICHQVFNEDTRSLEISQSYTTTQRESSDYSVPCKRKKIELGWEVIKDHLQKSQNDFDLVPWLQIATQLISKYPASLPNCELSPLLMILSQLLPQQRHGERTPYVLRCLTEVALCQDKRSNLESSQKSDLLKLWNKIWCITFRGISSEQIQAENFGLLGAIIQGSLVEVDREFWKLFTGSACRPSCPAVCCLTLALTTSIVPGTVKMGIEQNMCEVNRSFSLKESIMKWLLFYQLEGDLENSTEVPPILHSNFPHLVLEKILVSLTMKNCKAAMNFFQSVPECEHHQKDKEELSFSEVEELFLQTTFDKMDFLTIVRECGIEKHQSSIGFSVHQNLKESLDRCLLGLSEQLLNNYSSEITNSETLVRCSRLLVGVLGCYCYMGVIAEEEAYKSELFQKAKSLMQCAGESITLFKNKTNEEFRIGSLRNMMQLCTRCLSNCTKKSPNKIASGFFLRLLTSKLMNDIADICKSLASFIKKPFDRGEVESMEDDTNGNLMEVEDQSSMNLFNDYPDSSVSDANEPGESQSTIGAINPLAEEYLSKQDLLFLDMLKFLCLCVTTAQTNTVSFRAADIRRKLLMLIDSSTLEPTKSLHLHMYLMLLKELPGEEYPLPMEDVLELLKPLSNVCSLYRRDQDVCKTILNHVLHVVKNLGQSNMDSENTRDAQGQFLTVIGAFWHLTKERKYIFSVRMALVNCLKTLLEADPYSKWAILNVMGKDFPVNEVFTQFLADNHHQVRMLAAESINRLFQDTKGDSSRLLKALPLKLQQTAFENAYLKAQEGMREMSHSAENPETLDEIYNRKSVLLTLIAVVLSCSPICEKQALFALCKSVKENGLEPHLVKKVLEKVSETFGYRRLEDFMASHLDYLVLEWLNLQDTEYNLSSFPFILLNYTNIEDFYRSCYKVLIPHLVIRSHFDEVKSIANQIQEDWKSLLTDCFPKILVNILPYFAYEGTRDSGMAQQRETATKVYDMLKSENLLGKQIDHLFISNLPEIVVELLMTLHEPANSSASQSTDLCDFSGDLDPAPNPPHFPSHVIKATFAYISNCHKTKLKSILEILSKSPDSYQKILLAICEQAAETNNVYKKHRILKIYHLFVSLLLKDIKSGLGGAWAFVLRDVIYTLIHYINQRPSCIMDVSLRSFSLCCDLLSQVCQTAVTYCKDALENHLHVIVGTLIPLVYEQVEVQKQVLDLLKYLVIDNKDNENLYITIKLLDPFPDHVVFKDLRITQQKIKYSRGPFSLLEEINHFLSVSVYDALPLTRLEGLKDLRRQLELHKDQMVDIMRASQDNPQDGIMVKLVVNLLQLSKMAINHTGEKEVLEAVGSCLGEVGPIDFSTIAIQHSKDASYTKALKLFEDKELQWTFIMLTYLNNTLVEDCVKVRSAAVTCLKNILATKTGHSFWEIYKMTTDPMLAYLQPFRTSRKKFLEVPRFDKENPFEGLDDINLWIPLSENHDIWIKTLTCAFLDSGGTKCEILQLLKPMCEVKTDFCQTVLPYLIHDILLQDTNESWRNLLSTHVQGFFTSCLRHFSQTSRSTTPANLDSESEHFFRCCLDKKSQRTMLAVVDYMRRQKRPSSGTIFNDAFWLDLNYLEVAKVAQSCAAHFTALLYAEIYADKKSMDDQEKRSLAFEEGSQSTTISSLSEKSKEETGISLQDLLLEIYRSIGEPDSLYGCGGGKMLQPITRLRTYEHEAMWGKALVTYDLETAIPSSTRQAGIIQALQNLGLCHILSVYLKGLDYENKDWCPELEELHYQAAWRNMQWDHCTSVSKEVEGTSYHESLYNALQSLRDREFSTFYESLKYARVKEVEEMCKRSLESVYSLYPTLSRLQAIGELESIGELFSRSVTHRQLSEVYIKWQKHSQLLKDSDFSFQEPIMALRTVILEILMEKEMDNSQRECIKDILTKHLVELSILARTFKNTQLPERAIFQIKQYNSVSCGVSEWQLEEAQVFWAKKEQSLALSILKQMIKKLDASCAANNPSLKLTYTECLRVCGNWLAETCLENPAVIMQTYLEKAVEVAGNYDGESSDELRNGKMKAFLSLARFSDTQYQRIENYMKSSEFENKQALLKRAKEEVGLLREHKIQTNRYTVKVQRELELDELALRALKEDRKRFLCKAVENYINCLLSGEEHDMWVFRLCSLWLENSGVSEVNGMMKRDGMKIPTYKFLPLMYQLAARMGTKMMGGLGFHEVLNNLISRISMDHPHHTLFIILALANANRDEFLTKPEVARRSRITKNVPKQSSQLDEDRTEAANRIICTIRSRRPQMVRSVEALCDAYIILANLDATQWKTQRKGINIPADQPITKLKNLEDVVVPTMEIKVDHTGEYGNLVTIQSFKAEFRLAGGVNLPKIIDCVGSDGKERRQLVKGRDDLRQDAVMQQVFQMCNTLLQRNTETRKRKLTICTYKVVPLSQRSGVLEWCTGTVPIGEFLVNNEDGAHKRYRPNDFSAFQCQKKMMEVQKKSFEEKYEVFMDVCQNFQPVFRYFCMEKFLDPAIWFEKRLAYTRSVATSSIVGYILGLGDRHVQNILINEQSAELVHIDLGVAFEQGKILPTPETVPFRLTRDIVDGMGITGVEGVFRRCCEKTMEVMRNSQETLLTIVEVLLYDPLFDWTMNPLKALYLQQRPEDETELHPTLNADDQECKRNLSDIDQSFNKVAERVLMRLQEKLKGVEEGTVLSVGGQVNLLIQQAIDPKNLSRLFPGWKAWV

Turning to `Cc1ccnc(C(C)Nc2ccc3c(c2)Sc2cccc(-c4cc(N5CCOCC5)cc(=O)[nH]4)c2S3)c1` (centres unmarked) [Example 1-12-29], the IC50 at ATM was under 100 nM. Further, the SER2 (concentration at which the radiation sensitivity-enhancement ratio reaches 2) in experiment [1] (NCI-H460, 120 h) was under 100 nM.

With `O=c1cc(N2CCOCC2)cc(-c2cccc3c2Oc2ccc(NCc4cncc(Cl)c4)cc2C3)[nH]1` [Example 2-2-12, 6-(7-(((5-Chloropyridin-3-yl)methyl)amino)-9H-xanthen-4-yl)-4-morpholino pyridin-2 (1H)-one], the IC50 on ATM was under 100 nM. Further, the SER2 (concentration at which the radiation sensitivity-enhancement ratio reaches 2) in experiment [1] (NCI-H460, 120 h) lay within 100 to 500 nM.

Regarding `COc1ncc(CNc2ccc3c(c2)Cc2cccc(-c4cc(N5CCOCC5)cc(=O)[nH]4)c2O3)cc1F` [Example 2-2-18, 6-(7-(((5-Fluoro-6-methoxypyridin-3-yl)methyl)amino)-9H-xanthen-4-yl)-4-morpholino pyridin-2(1H)-one], the IC50 at ATM lay in the range of 100 to 500 nM. Moreover, in experiment [1] (NCI-H460, 120 h), the SER2 (concentration at which the radiation sensitivity-enhancement ratio reaches 2) fell in the range of 500 to 2000 nM.

Take `Cc1nccc(C(C)Nc2ccc3c(c2)Sc2cccc(-c4cc(N5CCOCC5)cc(=O)[nH]4)c2S3)n1` (single isomer, unassigned) [Example 1-12-141-1, 6-(7-((1-(2-methylpyrimidin-4-yl)ethyl)amino)thianthren-1-yl)-4-morpholinopyridin-2(1H)-one]: the IC50 on ATM was under 100 nM. For the same compound, the SER2 (concentration at which the radiation sensitivity-enhancement ratio reaches 2) in experiment [1] (NCI-H460, 120 h) lay within 100 to 500 nM.

Consider `O=c1cc(N2CCOCC2)cc(-c2cccc3c2Oc2ccc(NCc4cc(-n5cccc5)ccn4)cc2C3)[nH]1` [Example 2-2-71, 6-(7-(((4-(1H-Pyrrol-1-yl)pyridin-2-yl)methyl)amino)-9H-xanthen-4-yl)-4-morpholino pyridin-2(1H)-one], for which the IC50 at ATM is under 100 nM. Further, in experiment [1] (NCI-H460, 120 h), the SER2 (concentration at which the radiation sensitivity-enhancement ratio reaches 2) fell in the range of 100 to 500 nM.

As for `O=c1cc(N2CCOCC2)cc(-c2cccc3c2Sc2ccc(NCc4cc(C5CC5)ccn4)cc2S3)[nH]1` [Example 1-12-14, 6-(7-(((4-Cyclopropylpyridin-2-yl)methyl)amino)thianthren-1-yl)-4-morpholino pyridin-2(1H)-one], the IC50 on ATM was under 100 nM. Moreover, the SER2 (concentration at which the radiation sensitivity-enhancement ratio reaches 2) in experiment [1] (NCI-H460, 120 h) lay within 100 to 500 nM.

`COC[C@H](CN1CCO[C@H](C)C1)Nc1ccc2c(c1)Sc1cccc(-c3cc(N4CCOCC4)cc(=O)[nH]3)c1S2` [Example 1-46-7, 6-(7-(((S)-1-Methoxy-3-((R)-2-methylmorpholino)propan-2-yl)amino)thianthren-1-yl)-4-morpholino pyridin-2(1H)-one]: the IC50 at ATM was under 100 nM. For the same compound, the SER2 (concentration at which the radiation sensitivity-enhancement ratio reaches 2) in experiment [1] (NCI-H460, 120 h) is 100 to 500 nM.

As for `COCCN1CCC(Nc2ccc3c(c2)Sc2cccc(-c4cc(N5CCOCC5)cc(=O)[nH]4)c2S3)CC1` [Example 1-26-1, 6-(7-((1-(2-methoxyethyl)piperidin-4-yl)amino)thianthren-1-yl)-4-morpholinopyridin-2(1H)-one], the IC50 on ATM is under 100 nM. Moreover, the SER2 (concentration at which the radiation sensitivity-enhancement ratio reaches 2) in experiment [1] (NCI-H460, 120 h) fell in the range of 100 to 500 nM.

In the case of `CN1CCN(CCNc2ccc3c(c2)Sc2cccc(-c4cc(N5CCOCC5)cc(=O)[nH]4)c2S3)CC1` [Example 1-10-9, 6-(7-((2-(4-Methylpiperazin-1-yl)ethyl)amino)thianthren-1-yl)-4-morpholino pyridin-2(1H)-one], the IC50 at ATM is under 100 nM. In addition, the SER2 (concentration at which the radiation sensitivity-enhancement ratio reaches 2) in experiment [1] (NCI-H460, 120 h) was in the range of 100 to 500 nM.

In the case of `O=c1cc(N2CCOCC2)cc(-c2cccc3c2Oc2ccc(NCc4cccc(Cl)n4)cc2S3)[nH]1` [Example 4-4-20, 6-(8-(((6-Chloropyridin-2-yl)methyl)amino)phenoxathiin-4-yl)-4-morpholino pyridin-2(1H)-one], at ATM, the IC50 was under 100 nM. In experiment [1] (NCI-H460, 120 h), the SER2 (concentration at which the radiation sensitivity-enhancement ratio reaches 2) lay in the range of 100 to 500 nM.

On to `O=c1cc(N2CCOCC2)cc(-c2cccc3c2Oc2ccc(NCc4cncc(C5C=CCC5)c4)cc2C3)[nH]1` (centres unmarked) [Example 2-2-60, 6-(7-(((5-(Cyclopent-2-en-1-yl)pyridin-3-yl)methyl)amino)-9H-xanthen-4-yl)-4-morpholino pyridin-2(1H)-one], for which the IC50 on ATM was under 100 nM. Further, in experiment [1] (NCI-H460, 120 h), the SER2 (concentration at which the radiation sensitivity-enhancement ratio reaches 2) lay in the range of 500 to 2000 nM.

Take `O=c1cc(N2CCOCC2)cc(-c2cccc3c2Sc2ccc(N[C@@H]4CCCC[C@H]4N4CCOCC4)cc2S3)[nH]1` [Example 1-48-1, 4-Morpholino-6-(7-(((1R,2R)-2-morpholinocyclohexyl)amino)thianthren-1-yl)pyridin-2(1H)-one]: at ATM, the IC50 is under 100 nM. Moreover, in experiment [1] (NCI-H460, 120 h), the SER2 (concentration at which the radiation sensitivity-enhancement ratio reaches 2) was 100 to 500 nM.

Regarding `CC(Nc1ccc2c(c1)Sc1cccc(-c3cc(N4CCOCC4)cc(=O)[nH]3)c1S2)c1cnccn1` (centres unmarked) [Example 1-12-63, 4-Morpholino-6-(7-((1-(pyrazin-2-yl)ethyl)amino)thianthren-1-yl)pyridin-2 (1H)-one], the IC50 at ATM is under 100 nM. For the same compound, the SER2 (concentration at which the radiation sensitivity-enhancement ratio reaches 2) in experiment [1] (NCI-H460, 120 h) was 100 to 500 nM.

With `Cc1cccc(C(CO)Nc2ccc3c(c2)Cc2cccc(-c4cc(N5CCOCC5)cc(=O)[nH]4)c2O3)n1` (single isomer, unassigned) [Example 2-14-92-2, 6-(7-((2-hydroxy-1-(6-methylpyridin-2-yl)ethyl)amino)-9H-xanthen-4-yl)-4-morpholinopyridin-2(1H)-one], on ATM, the IC50 lay within 100 to 500 nM. Further, the SER2 (concentration at which the radiation sensitivity-enhancement ratio reaches 2) in experiment [1] (NCI-H460, 120 h) was under 100 nM.

As for `CC1COCCN1CCNc1ccc2c(c1)Sc1cccc(-c3cc(N4CCOCC4)cc(=O)[nH]3)c1S2` (centres unmarked) [Example 1-16-7, 6-(7-((2-(3-Methylmorpholino)ethyl)amino)thianthren-1-yl)-4-morpholinopyridin-2(1H)-one], the IC50 at ATM is under 100 nM. The SER2 (concentration at which the radiation sensitivity-enhancement ratio reaches 2) in experiment [1] lay in the range of 100 to 500 nM.

As to `O=c1cc(N2CCOCC2)cc(-c2cccc3c2Oc2ccc(NCc4cncc(F)c4)cc2S3)[nH]1` [Example 4-8-12, 6-(8-(((5-Fluoropyridin-3-yl)methyl)amino)phenoxathiin-4-yl)-4-morpholino pyridin-2(1H)-one], the IC50 on ATM was under 100 nM. For the same compound, the SER2 (concentration at which the radiation sensitivity-enhancement ratio reaches 2) in experiment [1] (NCI-H460, 120 h) lay in the range of 100 to 500 nM.

On to `Cc1cccc(C(CO)Nc2ccc3c(c2)Sc2cccc(-c4cc(N5CCOCC5)cc(=O)[nH]4)c2S3)n1` (centres unmarked) [Example 1-12-71, 6-(7-((2-Hydroxy-1-(6-methylpyridin-2-yl)ethyl)amino)thianthren-1-yl)-4-morpholino pyridin-2(1H)-one], for which the IC50 at ATM is under 100 nM. The SER2 (concentration at which the radiation sensitivity-enhancement ratio reaches 2) in experiment [1] (NCI-H460, 120 h) lay in the range of 100 to 500 nM.

In the case of `Cc1cncc(C(C)Nc2ccc3c(c2)Sc2cccc(-c4cc(N5CCOCC5)cc(=O)[nH]4)c2O3)c1` (centres unmarked) [Example 4-4-29, 6-(8-((1-(5-Methylpyridin-3-yl)ethyl)amino)phenoxathiin-4-yl)-4-morpholino pyridin-2(1H)-one], the IC50 on ATM is under 100 nM. Further, in experiment [1] (NCI-H460, 120 h), the SER2 (concentration at which the radiation sensitivity-enhancement ratio reaches 2) lay within 100 to 500 nM.

For the compound `CN1CCC(Nc2ccc3c(c2)Sc2cccc(-c4cc(N5CCOCC5)cc(=O)[nH]4)c2S3)CC1` [Example 1-44-5, 6-(7-((1-Methylpiperidin-4-yl)amino)thianthren-1-yl)-4-morpholino pyridin-2(1H)-one], at ATM, the IC50 is under 100 nM. Moreover, the SER2 (concentration at which the radiation sensitivity-enhancement ratio reaches 2) in experiment [1] (NCI-H460, 120 h) lay within 500 to 2000 nM.

Consider `COCC(CN1CCOCC1)Nc1ccc2c(c1)Sc1cccc(-c3cc(N4CCOCC4)cc(=O)[nH]3)c1S2` (racemic) [Example 1-17-1-1, 6-(7-((1-Methoxy-3-morpholinopropan-2-yl)amino)thianthren-1-yl)-4-morpholinopyridin-2(1H)-one], for which the IC50 on ATM is under 100 nM. Moreover, in experiment [1] (NCI-H460, 120 h), the SER2 (concentration at which the radiation sensitivity-enhancement ratio reaches 2) is under 100 nM.

Consider `COc1cncc(C(C)Nc2ccc3c(c2)Sc2cccc(-c4cc(N5CCOCC5)cc(=O)[nH]4)c2S3)c1` (centres unmarked) [Example 1-12-9, 6-(7-((1-(5-Methoxypyridin-3-yl)ethyl)amino)thianthren-1-yl)-4-morpholino pyridin-2(1H)-one], for which the IC50 on ATM is under 100 nM. The SER2 (concentration at which the radiation sensitivity-enhancement ratio reaches 2) in experiment [1] (NCI-H460, 120 h) was 100 to 500 nM.

In the case of `Cc1ccc(C(Nc2ccc3c(c2)Sc2cccc(-c4cc(N5CCOCC5)cc(=O)[nH]4)c2S3)C2CN(C)CCO2)nc1` (single isomer, unassigned) [Example 1-52-1, 6-(7-(((4-methylmorpholin-2-yl)(5-methylpyridin-2-yl)methyl)amino)thianthren-1-yl)-4-morpholinopyridin-2(1H)-one], at ATM, the IC50 was under 100 nM. Moreover, the SER2 (concentration at which the radiation sensitivity-enhancement ratio reaches 2) in experiment [1] (NCI-H460, 120 h) was under 100 nM.
